Assay results: patent publication US10526345B2, “Compounds as GPR119 agonists” (Mankind Pharma Ltd., priority 2016, dated 2020)

Each compound was assayed against T1, hGPR119 (Homo sapiens, UniProt Q8TDV5) (assay: In vitro cyclic AMP assay (Cisbio dynamic 2 HTRF kit) in CHO-hGPR119 cells). Settings: 1 h, cAMP, compound at 1 μM, 60 min, read-out: Induction (% induction at 1 μM).
T1 construct: expressed in transfected cells; host or cells: CHO
T1 sequence (Q8TDV5 1-335): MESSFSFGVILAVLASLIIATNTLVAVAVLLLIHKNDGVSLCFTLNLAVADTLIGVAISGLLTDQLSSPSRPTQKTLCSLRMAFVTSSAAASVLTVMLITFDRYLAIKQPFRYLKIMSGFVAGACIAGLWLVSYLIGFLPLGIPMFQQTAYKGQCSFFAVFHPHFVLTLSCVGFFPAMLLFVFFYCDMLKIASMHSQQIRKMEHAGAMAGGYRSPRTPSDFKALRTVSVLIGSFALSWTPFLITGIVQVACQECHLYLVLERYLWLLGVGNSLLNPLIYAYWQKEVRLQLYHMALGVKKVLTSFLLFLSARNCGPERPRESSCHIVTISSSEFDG
Type: cell-based
In the case of `CC(C)c1noc(C2CCC(C(C)Oc3nc4ccc(-c5ccc(S(C)(=O)=O)cc5)nc4s3)CC2)n1` (stereo not shown) [Compound 1105, 3-isopropyl-5-(4-(1-((5-(4-(methylsulfonyl)phenyl)thiazolo[5,4-b]pyridin-2-yl)oxy)ethyl)cyclohexyl)-1,2,4-oxadiazole], the activation at 1 µM is reported as 13%. In the case of `CC(C)c1nsc(N2CCC(C(C)Oc3nc4ccc(-c5ccc(S(C)(=O)=O)cc5)nc4s3)CC2)n1` (stereo not shown) [Compound 1107, 2-(1-(1-(3-isopropyl-1,2,4-thiadiazol-5-yl)piperidin-4-yl)ethoxy)-5-(4-(methylsulfonyl)phenyl)thiazolo[5,4-b]pyridine], the activation at 1 µM is reported as 12%. `CC(C)c1noc(N2CCC(C(C)Oc3nc4ncc(-c5ccc(S(C)(=O)=O)cc5)nc4s3)CC2)n1` (stereo not shown) [Compound 1108, 3-isopropyl-5-(4-(1-((6-(4-(methylsulfonyl)phenyl)thiazolo[4,5-b]pyrazin-2-yl)oxy)ethyl)piperidin-1-yl)-1,2,4-oxadiazole] showed an activation at 1 µM of 65%. For `CC(Oc1nc2ccc(-c3ccc(S(C)(=O)=O)cc3)nc2s1)C1CCN(S(=O)(=O)C2CC2)CC1` (stereo not shown) [Compound 1109, 2-(1-(1-(cyclopropylsulfonyl)piperidin-4-yl)ethoxy)-5-(4-(methylsulfonyl)phenyl)thiazolo[5,4-b]pyridine], the activation at 1 µM was 0%. `CCCc1cnc(N2CCC(C(C)Oc3nc4ncc(-c5ccc(S(C)(=O)=O)cc5)nc4s3)CC2)nc1` (stereo not shown) [Compound 1110, 6-(4-(methylsulfonyl)phenyl)-2-(1-(1-(5-propylpyrimidin-2-yl)piperidin-4-yl)ethoxy)thiazolo[4,5-b]pyrazine] gave an activation at 1 µM of 78%. `CC(C)c1noc(N2CCC(C(C)Oc3nc4ccc(-c5ccc(S(C)(=O)=O)cc5F)nc4s3)CC2)n1` (stereo not shown) [Compound 1111, 5-(4-(1-((5-(2-fluoro-4-(methylsulfonyl)phenyl)thiazolo[5,4-b]pyridin-2-yl)oxy)ethyl)piperidin-1-yl)-3-isopropyl-1,2,4-oxadiazole] was tested, and the activation at 1 µM was 24%. `CC(C)c1cnc(N2CCC(C(C)Oc3nc4ccc(-c5ccc(S(C)(=O)=O)cc5)nc4s3)CC2)nc1` (stereo not shown) [Compound 1113, 2-(1-(1-(5-isopropylpyrimidin-2-yl)piperidin-4-yl)ethoxy)-5-(4-(methylsulfonyl)phenyl)thiazolo[5,4-b]pyridine] gave an activation at 1 µM of 57%. Work on `CC(C)c1noc(N2CCC([C@H](C)Oc3nc4ncc(-c5ccc(S(C)(=O)=O)nc5)nc4s3)CC2)n1` [Compound 1114, (S)-3-isopropyl-5-(4-(1-((6-(6-(methyslulfonyl)pyridin-3-yl)thiazolo[4,5-b]pyrazin-2-yl)oxy)ethyl)piperidin-1-yl)-1,2,4-oxadiazole] yielded an activation at 1 µM of 75%. Work on `CCCS(=O)(=O)N1CCC(C(C)Oc2nc3ccc(-c4ccc(S(C)(=O)=O)cc4)nc3s2)CC1` (stereo not shown) [Compound 1115, 5-(4-(methylsulfonyl)phenyl)-2-(1-(1-(propylsulfonyl)piperidin-4-yl)ethoxy)thiazolo[5,4-b]pyridine] yielded an activation at 1 µM of 12%. In the case of `CC(C)c1noc(N2CCC(C(C)Oc3nc4ccc(-c5cnc(Cl)nc5)nc4s3)CC2)n1` (stereo not shown) [Compound 1116, 5-(4-(1-((5-(2-chloropyrimidin-5-yl)thiazolo[5,4-b]pyridin-2-yl)oxy)ethyl)piperidin-1-yl)-3-isopropyl-1,2,4-oxadiazole], the activation at 1 µM is reported as 61%. In the case of `CC(Oc1nc2ccc(-c3ccc(S(C)(=O)=O)cc3)nc2s1)C1CCN(C(=O)OC2(C)CC2)CC1` (stereo not shown) [Compound 1117, 1-methylcyclopropyl 4-(1-((5-(4-(methylsulfonyl)phenyl)thiazolo[5,4-b]pyridin-2-yl)oxy)ethyl)piperidine-1-carboxylate], the activation at 1 µM is reported as 2%. With `C=C(C)c1cnc(N2CCC(C(C)Oc3nc4ccc(-c5ccc(S(C)(=O)=O)cc5)nc4s3)CC2)nc1` (stereo not shown) [Compound 1118, 5-(4-(methylsulfonyl)phenyl)-2-(1-(1-(5-(prop-1-en-2-yl)pyrimidin-2-yl)piperidin-4-yl)ethoxy)thiazolo[5,4-b]pyridine] the activation at 1 µM was 47%. For `CC(C)c1noc(N2CCC(C(C)Oc3nc4ccc(-c5cncs5)nc4s3)CC2)n1` (stereo not shown) [Compound 1121, 3-isopropyl-5-(4-(1-((5-(thiazol-5-yl)thiazolo[5,4-b]pyridin-2-yl)oxy)ethyl)piperidin-1-yl)-1,2,4-oxadiazole], the activation at 1 µM was 30%. `CC(C)c1noc(N2CCC(C(C)Oc3nc4ccc(-c5cnoc5)nc4s3)CC2)n1` (stereo not shown) [Compound 1122, 3-isopropyl-5-(4-(1-((5-(isoxazol-4-yl)thiazolo[5,4-b]pyridin-2-yl)oxy)ethyl)piperidin-1-yl)-1,2,4-oxadiazole] gave an activation at 1 µM of 30%. In the case of `Cc1cc(-c2ccc3nc(OC(C)C4CCN(c5nc(C(C)C)no5)CC4)sc3n2)ccn1` (stereo not shown) [Compound 1123, 3-isopropyl-5-(4-(1-((5-(2-methylpyridin-4-yl)thiazolo[5,4-b]pyridin-2-yl)oxy)ethyl)piperidin-1-yl)-1,2,4-oxadiazole], the activation at 1 µM is reported as 50%. Work on `CC(C)c1noc(N2CCC(C(C)Oc3nc4ccc(-c5cnsc5)nc4s3)CC2)n1` (stereo not shown) [Compound 1124, 2-(1-(1-(3-isopropyl-1,2,4-oxadiazol-5-yl)piperidin-4-yl)ethoxy)-5-(isothiazol-4-yl)thiazolo[5,4-b]pyridine] yielded an activation at 1 µM of 30%. For `Cc1nscc1-c1ccc2nc(OC(C)C3CCN(c4nc(C(C)C)no4)CC3)sc2n1` (stereo not shown) [Compound 1125, 3-isopropyl-5-(4-(1-((5-(3-methylisothiazol-4-yl)thiazolo[5,4-b]pyridin-2-yl)oxy)ethyl)piperidin-1-yl)-1,2,4-oxadiazole], the activation at 1 µM was 38%. With `CC(C)c1noc(N2CCC(C(C)Oc3nc4ccc(-c5cc[nH]c(=O)c5)nc4s3)CC2)n1` (stereo not shown) [Compound 1126, 4-(2-(1-(1-(3-isopropyl-1,2,4-oxadiazol-5-yl)piperidin-4-yl)ethoxy)thiazolo[5,4-b]pyridin-5-yl)pyridin-2(1H)-one] the activation at 1 µM was 42%. `CC(C)c1noc(N2CCC(C(C)Oc3nc4ccc(-c5ccn(C)c(=O)c5)nc4s3)CC2)n1` (stereo not shown) [Compound 1127, 4-(2-(1-(1-(3-isopropyl-1,2,4-oxadiazol-5-yl)piperidin-4-yl)ethoxy)thiazolo[5,4-b]pyridin-5-yl)-1-methylpyridin-2(1H)-one] showed an activation at 1 µM of 50%. `CC(C)c1noc(N2CC[C@@H](COc3nc4ccc(-c5ccc(S(C)(=O)=O)cc5)nc4s3)[C@@H](F)C2)n1` [Compound 1128, 5-((3R,4S)-3-fluoro-4-(((5-(4-(methylsulfonyl)phenyl)thiazolo[5,4-b]pyridin-2-yl)oxy)methyl)piperidin-1-yl)-3-isopropyl-1,2,4-oxadiazole] showed an activation at 1 µM of 10%. For `CC(C)c1noc(N2CC[C@@H](COc3nc4ccc(-c5ccc(S(C)(=O)=O)cc5)nc4s3)[C@H](F)C2)n1` [Compound 1129, 5-((3S,4S)-3-fluoro-4-(((5-(4-(methylsulfonyl)phenyl)thiazolo[5,4-b]pyridin-2-yl)oxy)methyl)piperidin-1-yl)-3-isopropyl-1,2,4-oxadiazole], the activation at 1 µM was 5%. With `CC(C)c1noc(N2CCC(OC(C)c3nc4ccc(-c5ccc(S(C)(=O)=O)cc5)nc4s3)CC2)n1` (stereo not shown) [Compound 1130, 3-isopropyl-5-(4-(1-(5-(4-(methylsulfonyl)phenyl)thiazolo[5,4-b]pyridin-2-yl)ethoxy)piperidin-1-yl)-1,2,4-oxadiazole] the activation at 1 µM was 5%. Compound `CC(Oc1nc2ccc(-c3ccc(S(C)(=O)=O)cc3)nc2s1)C1CCN(c2nc(C(F)(F)F)no2)CC1` (stereo not shown) [Compound 1131, 5-(4-(1-((5-(4-(methylsulfonyl)phenyl)thiazolo[5,4-b]pyridin-2-yl)oxy)ethyl)piperidin-1-yl)-3-(trifluoromethyl)-1,2,4-oxadiazole] has an activation at 1 µM of 40%. Work on `CC(C)c1noc(N2CCC(C(C)Oc3nc4ccc(-c5ccnc(Cl)c5)nc4s3)CC2)n1` (stereo not shown) [Compound 1132, 2-(1-(1-(3-isopropyl-1,2,4-oxadiazol-5-yl)piperidin-4-yl)ethoxy)-5-(2-chloropyridin-4-yl)thiazolo[5,4-b]pyridine] yielded an activation at 1 µM of 38%. Work on `CC(C)c1noc(N2CCC([C@H](C)Oc3nc4ccc(-c5cnc(S(C)(=O)=O)nc5)nc4s3)CC2)n1` [Compound 1133, 2-((S)-1-(1-(3-isopropyl-1,2,4-oxadiazol-5-yl)piperidin-4-yl)ethoxy)-5-(2-(methylsulfonyl)pyrimidin-5-yl)thiazolo[5,4-b]pyridine] yielded an activation at 1 µM of 55%. With `CC(C)c1noc(N2CCC(C(C)Oc3nc4ccc(-c5ccnnc5)nc4s3)CC2)n1` (stereo not shown) [Compound 1134, 3-isopropyl-5-(4-(1-((5-(pyridazin-4-yl)thiazolo[5,4-b]pyridin-2-yl)oxy)ethyl)piperidin-1-yl)-1,2,4-oxadiazole] the activation at 1 µM was 40%. Work on `C[C@H](Oc1nc2ccc(-c3ccc(S(C)(=O)=O)nc3)nc2s1)C1CCN(c2ncc(Cl)cn2)CC1` [Compound 1136, 2-((S)-1-(1-(5-chloropyrimidin-2-yl)piperidin-4-yl)ethoxy)-5-(6-(methylsulfonyl)pyridin-3-yl)thiazolo[5,4-b]pyridine] yielded an activation at 1 µM of 82%. `CC(Oc1nc2ccc(-c3ccc(S(C)(=O)=O)nc3)nc2s1)C1CCN(c2ncc(C3CC3)cn2)CC1` (stereo not shown) [Compound 1137, 2-(1-(1-(5-cyclopropylpyrimidin-2-yl)piperidin-4-yl)ethoxy)-5-(6-(methylsulfonyl)pyridin-3-yl)thiazolo[5,4-b]pyridine] was tested, and the activation at 1 µM was 73%. `CC(=O)N(C)c1ncc(-c2ccc3nc(OC(C)C4CCN(c5nc(C(C)C)no5)CC4)sc3n2)cn1` (stereo not shown) [Compound 1139, N-(5-(2-(1-(1-(3-isopropyl-1,2,4-oxadiazol-5-yl)piperidin-4-yl)ethoxy)thiazolo[5,4-b]pyridin-5-yl)pyrimidin-2-yl)-N-methylacetamide] was tested, and the activation at 1 µM was 65%.

Same assay, conditions: cAMP
`CC(C)c1noc(N2CCC([C@H](C)Oc3nc4ncc(-c5ccc(S(C)(=O)=O)nc5)nc4s3)CC2)n1` [Compound 1114, (S)-3-isopropyl-5-(4-(1-((6-(6-(methyslulfonyl)pyridin-3-yl)thiazolo[4,5-b]pyrazin-2-yl)oxy)ethyl)piperidin-1-yl)-1,2,4-oxadiazole] showed an EC50 of 0.05 to 0.1 µM. `C[C@H](Oc1nc2ccc(-c3ccc(S(C)(=O)=O)nc3)nc2s1)C1CCN(c2ncc(Cl)cn2)CC1` [Compound 1136, 2-((S)-1-(1-(5-chloropyrimidin-2-yl)piperidin-4-yl)ethoxy)-5-(6-(methylsulfonyl)pyridin-3-yl)thiazolo[5,4-b]pyridine] showed an EC50 of 0.1 to 0.5 µM.
